From ChEMBL document CHEMBL1127385, “Synthesis and diuretic activity of alkyl- and arylguanidine analogs of N,N'-dicyclohexyl-4-morpholinecarboxamidine in rats and dogs” (J Med Chem, 1994)

Key:
Rattus norvegicus [1] = assay: Total electrolytic excretion of chlorine in urine of rats after peroral administration of 27.9 uM/Kg of drug; assay type: ADME, organism-based; settings: in vivo, po
Rattus norvegicus [2] = assay: Tested for the diuretic activity by measuring the urinary volume after peroral administering 279 uM/Kg of drug in rats; assay type: ADME, organism-based, Urine; settings: in vivo, po
Rattus norvegicus [3] = assay: Total electrolytic excretion of sodium in urine of rats after peroral administration of 83.8 uM/Kg of drug; assay type: ADME, organism-based; settings: in vivo, po
Rattus norvegicus [4] = assay: Total electrolytic excretion of chlorine in urine of rats after peroral administration of 83.8 uM/Kg of drug; assay type: ADME, organism-based; settings: in vivo, po
Rattus norvegicus [5] = assay: Ratio of Total electrolytic excretion of sodium and potassium in urine of rats after peroral administration of 27.9 uM/Kg of drug; assay type: ADME, organism-based; settings: in vivo, po
Rattus norvegicus [6] = assay: Total electrolytic excretion of sodium in urine of rats after peroral administration of 279 uM/Kg of drug; assay type: ADME, organism-based; settings: in vivo, po
Rattus norvegicus [7] = assay: Ratio of Total electrolytic excretion of sodium and potassium in urine of rats after peroral administration of 83.8 uM/Kg of drug; assay type: ADME, organism-based; settings: in vivo, po
Rattus norvegicus [8] = assay: Ratio of Total electrolytic excretion of sodium and potassium in urine of rats after peroral administration of 279 uM/Kg of drug; assay type: ADME, organism-based; settings: in vivo, po
Rattus norvegicus [9] = assay: Total electrolytic excretion of potassium in urine of rats after peroral administration of 83.8 uM/Kg of drug; assay type: ADME, organism-based; settings: in vivo, po
Rattus norvegicus [10] = assay: Total electrolytic excretion of potassium in urine of rats after peroral administration of 27.9 uM/Kg of drug; assay type: ADME, organism-based; settings: in vivo, po
Rattus norvegicus [11] = assay: Total electrolytic excretion of chlorine in urine of rats after peroral administration of 279 uM/Kg of drug; assay type: ADME, organism-based; settings: in vivo, po
Rattus norvegicus [12] = assay: Tested for the diuretic activity by measuring the urinary volume after peroral administering 27.9 uM/Kg of drug in rats; assay type: ADME, organism-based, Urine; settings: in vivo, po
Rattus norvegicus [13] = assay: Total electrolytic excretion of potassium in urine of rats after peroral administration of 279 uM/Kg of drug; assay type: ADME, organism-based; settings: in vivo, po
Rattus norvegicus [14] = assay: Total electrolytic excretion of sodium in urine of rats after peroral administration of 27.9 uM/Kg of drug; assay type: ADME, organism-based; settings: in vivo, po
Rattus norvegicus [15] = assay: Tested for the diuretic activity by measuring the urinary volume after peroral administering 83.8 uM/Kg of drug in rats; assay type: ADME, organism-based, Urine; settings: in vivo, po
Rattus norvegicus [16] = assay: Total electrolytic excretion of potassium in urine of rats after peroral administration of 239 uM/Kg of drug; assay type: ADME, organism-based; settings: in vivo, po
Rattus norvegicus [17] = assay: Total electrolytic excretion of potassium in urine of rats after peroral administration of 23.9 uM/Kg of drug; assay type: ADME, organism-based; settings: in vivo, po
Canis familiaris [18] = assay: Total electrolytic excretion of potassium in urine of dogs after intravenous administration of 11.9 uM/Kg of drug; assay type: ADME, organism-based, Canis lupus familiaris; settings: dog, in vivo
Rattus norvegicus [19] = assay: Ratio of Total electrolytic excretion of sodium and potassium in urine of rats after peroral administration of 23.9 uM/Kg of drug; assay type: ADME, organism-based; settings: in vivo, po
Rattus norvegicus [20] = assay: Total electrolytic excretion of chlorine in urine of rats after peroral administration of 239 uM/Kg of drug; assay type: ADME, organism-based; settings: in vivo, po
Rattus norvegicus [21] = assay: Ratio of Total electrolytic excretion of sodium and potassium in urine of rats after peroral administration of 71.6 uM/Kg of drug; assay type: ADME, organism-based; settings: in vivo, po
Rattus norvegicus [22] = assay: Total electrolytic excretion of chlorine in urine of rats after peroral administration of 71.6 uM/Kg of drug; assay type: ADME, organism-based; settings: in vivo, po
Rattus norvegicus [23] = assay: Total electrolytic excretion of sodium in urine of rats after peroral administration of 71.6 uM/Kg of drug; assay type: ADME, organism-based; settings: in vivo, po
Rattus norvegicus [24] = assay: Tested for the diuretic activity by measuring the urinary volume after peroral administering 239 uM/Kg of drug in rats; assay type: ADME, organism-based, Urine; settings: in vivo, po
Canis familiaris [25] = assay: Total electrolytic excretion of sodium in urine of dogs after intravenous administration of 11.9 uM/Kg of drug; assay type: ADME, organism-based, Canis lupus familiaris; settings: dog, in vivo
Rattus norvegicus [26] = assay: Total electrolytic excretion of potassium in urine of rats after peroral administration of 71.6 uM/Kg of drug; assay type: ADME, organism-based; settings: in vivo, po
Canis familiaris [27] = assay: Total electrolytic excretion of chlorine in urine of dogs after intravenous administration of 11.9 uM/Kg of drug; assay type: ADME, organism-based, Canis lupus familiaris; settings: dog, in vivo
Rattus norvegicus [28] = assay: Tested for the diuretic activity by measuring the urinary volume after peroral administering 23.9 uM/Kg of drug in rats; assay type: ADME, organism-based, Urine; settings: in vivo, po
Rattus norvegicus [29] = assay: Total electrolytic excretion of sodium in urine of rats after peroral administration of 239 uM/Kg of drug; assay type: ADME, organism-based; settings: in vivo, po
Canis familiaris [30] = assay: Tested for the diuretic activity by measuring the urinary volume after intravenous administering 11.9 uM/Kg of drug in dogs; assay type: ADME, organism-based, Canis lupus familiaris, Urine; settings: dog, in vivo
Rattus norvegicus [31] = assay: Ratio of Total electrolytic excretion of sodium and potassium in urine of rats after peroral administration of 239 uM/Kg of drug; assay type: ADME, organism-based; settings: in vivo, po
Rattus norvegicus [32] = assay: Tested for the diuretic activity by measuring the urinary volume after peroral administering 71.6 uM/Kg of drug in rats; assay type: ADME, organism-based, Urine; settings: in vivo, po
Rattus norvegicus [33] = assay: Ratio of Total electrolytic excretion of sodium and potassium in urine of rats after intravenous administration of 11.9 uM/Kg of drug; assay type: ADME, organism-based; settings: in vivo
Rattus norvegicus [34] = assay: Total electrolytic excretion of chlorine in urine of rats after peroral administration of 23.9 uM/Kg of drug; assay type: ADME, organism-based; settings: in vivo, po
Rattus norvegicus [35] = assay: Total electrolytic excretion of sodium in urine of rats after peroral administration of 23.9 uM/Kg of drug; assay type: ADME, organism-based; settings: in vivo, po
Rattus norvegicus [36] = assay: Tested for the diuretic activity by measuring the urinary volume after peroral administering 265 uM/Kg of drug in rats; assay type: ADME, organism-based, Urine; settings: in vivo, po
Rattus norvegicus [37] = assay: Tested for the diuretic activity by measuring the urinary volume after peroral administering 79.4 uM/Kg of drug in rats; assay type: ADME, organism-based, Urine; settings: in vivo, po
Rattus norvegicus [38] = assay: Total electrolytic excretion of chlorine in urine of rats after intravenous administration of 7.94 uM/Kg of drug; assay type: ADME, organism-based; settings: in vivo
Rattus norvegicus [39] = assay: Total electrolytic excretion of sodium in urine of rats after peroral administration of 79.4 uM/Kg of drug; assay type: ADME, organism-based; settings: in vivo, po
Rattus norvegicus [40] = assay: Total electrolytic excretion of chlorine in urine of rats after peroral administration of 79.4 uM/Kg of drug; assay type: ADME, organism-based; settings: in vivo, po
Rattus norvegicus [41] = assay: Total electrolytic excretion of chlorine in urine of rats after peroral administration of 265 uM/Kg of drug; assay type: ADME, organism-based; settings: in vivo, po
Rattus norvegicus [42] = assay: Total electrolytic excretion of sodium in urine of rats after peroral administration of 265 uM/Kg of drug; assay type: ADME, organism-based; settings: in vivo, po
Rattus norvegicus [43] = assay: Total electrolytic excretion of potassium in urine of rats after peroral administration of 265 uM/Kg of drug; assay type: ADME, organism-based; settings: in vivo, po
Rattus norvegicus [44] = assay: Total electrolytic excretion of potassium in urine of rats after peroral administration of 7.94 uM/Kg of drug; assay type: ADME, organism-based; settings: in vivo, po
Rattus norvegicus [45] = assay: Total electrolytic excretion of sodium in urine of rats after intravenous administration of 7.94 uM/Kg of drug; assay type: ADME, organism-based; settings: in vivo
Rattus norvegicus [46] = assay: Ratio of Total electrolytic excretion of sodium and potassium in urine of rats after peroral administration of 265 uM/Kg of drug; assay type: ADME, organism-based; settings: in vivo, po
Rattus norvegicus [47] = assay: Tested for the diuretic activity by measuring the urinary volume after peroral administering 26.5 uM/Kg of drug in rats; assay type: ADME, organism-based, Urine; settings: in vivo, po
Rattus norvegicus [48] = assay: Total electrolytic excretion of sodium in urine of rats after peroral administration of 26.5 uM/Kg of drug; assay type: ADME, organism-based; settings: in vivo, po
Rattus norvegicus [49] = assay: Total electrolytic excretion of potassium in urine of rats after peroral administration of 79.4 uM/Kg of drug; assay type: ADME, organism-based; settings: in vivo, po
Rattus norvegicus [50] = assay: Total electrolytic excretion of potassium in urine of rats after peroral administration of 26.5 uM/Kg of drug; assay type: ADME, organism-based; settings: in vivo, po
Rattus norvegicus [51] = assay: Ratio of Total electrolytic excretion of sodium and potassium in urine of rats after peroral administration of 26.5 uM/Kg of drug; assay type: ADME, organism-based; settings: in vivo, po
Rattus norvegicus [52] = assay: Ratio of Total electrolytic excretion of sodium and potassium in urine of rats after peroral administration of 79.4 uM/Kg of drug; assay type: ADME, organism-based; settings: in vivo, po
Rattus norvegicus [53] = assay: Ratio of Total electrolytic excretion of sodium and potassium in urine of rats after intravenous administration of 7.94 uM/Kg of drug; assay type: ADME, organism-based; settings: in vivo
Rattus norvegicus [54] = assay: Total electrolytic excretion of chlorine in urine of rats after peroral administration of 26.5 uM/Kg of drug; assay type: ADME, organism-based; settings: in vivo, po

In the case of `Clc1ccccc1N/C(=N/C1CCCCC1)N1CCOCC1`, the “Excretion Cl-” value (Rattus norvegicus [1]) is reported as 0.84 m equiv, the V (Rattus norvegicus [2]) is reported as 11.2 mL and the “Excretion Na+” value (Rattus norvegicus [3]) is reported as 1.01 m equiv. The “Excretion Cl-” value (Rattus norvegicus [4]) was 1.06 m equiv, the Ratio (Rattus norvegicus [5]) was 3 and the “Excretion Na+” value (Rattus norvegicus [6]) was 1.45 m equiv. For the same molecule, the Ratio (Rattus norvegicus [7]) was 3.5, the Ratio (Rattus norvegicus [8]) was 4.7 and the “Excretion K+” value (Rattus norvegicus [9]) was 0.29 m equiv. The “Excretion K+” value (Rattus norvegicus [10]) was 0.24 m equiv, the “Excretion Cl-” value (Rattus norvegicus [11]) was 1.46 m equiv and the V (Rattus norvegicus [12]) was 6.2 mL. For the same molecule, the “Excretion K+” value (Rattus norvegicus [13]) was 0.31 m equiv, the “Excretion Na+” value (Rattus norvegicus [14]) was 0.72 m equiv and the V (Rattus norvegicus [15]) was 7.7 mL.

With `Clc1ccc(N/C(=N/C2CCCCC2)N2CCOCC2)cc1Cl` the “Excretion K+” value (Rattus norvegicus [16]) was 0.33 m equiv, the “Excretion K+” value (Rattus norvegicus [17]) was 0.27 m equiv and the “Excretion K+” value (Canis familiaris [18]) was 1.1 m equiv. The Ratio (Rattus norvegicus [19]) was 4.1 [Na+]/[K+], the “Excretion Cl-” value (Rattus norvegicus [20]) was 1.69 m equiv and the Ratio (Rattus norvegicus [21]) was 4.4 [Na+]/[K+]. For the same molecule, the “Excretion Cl-” value (Rattus norvegicus [22]) was 1.45 m equiv, the “Excretion Na+” value (Rattus norvegicus [23]) was 1.41 m equiv and the V (Rattus norvegicus [24]) was 13.2 mL. The “Excretion Na+” value (Canis familiaris [25]) was 8.5 m equiv, the “Excretion K+” value (Rattus norvegicus [26]) was 0.32 m equiv and the “Excretion Cl-” value (Canis familiaris [27]) was 5.7 m equiv. For the same molecule, the V (Rattus norvegicus [28]) was 7.4 mL, the “Excretion Na+” value (Rattus norvegicus [29]) was 1.92 m equiv and the V (Canis familiaris [30]) was 57 mL. The Ratio (Rattus norvegicus [31]) was 5.8 [Na+]/[K+], the V (Rattus norvegicus [32]) was 10.6 mL and the Ratio (Rattus norvegicus [33]) was 7.4 [Na+]/[K+]. For the same molecule, the “Excretion Cl-” value (Rattus norvegicus [34]) was 1.17 m equiv and the “Excretion Na+” value (Rattus norvegicus [35]) was 1.1 m equiv.

In the case of `Cc1cccc(C)c1N/C(=N/C1CCCCC1)N1CCOCC1`, the V (Rattus norvegicus [36]) is reported as 17.4 mL, the V (Rattus norvegicus [37]) is reported as 12.3 mL and the “Excretion Cl-” value (Rattus norvegicus [38]) is reported as 6.5 m equiv. The “Excretion Na+” value (Rattus norvegicus [39]) was 1.71 m equiv, the “Excretion Cl-” value (Rattus norvegicus [40]) was 1.7 m equiv and the “Excretion Cl-” value (Rattus norvegicus [41]) was 1.86 m equiv. The “Excretion Na+” value (Rattus norvegicus [42]) was 2.05 m equiv, the “Excretion K+” value (Rattus norvegicus [43]) was 0.29 m equiv and the “Excretion K+” value (Rattus norvegicus [44]) was 1.3 m equiv. The “Excretion Na+” value (Rattus norvegicus [45]) was 7.8 m equiv, the Ratio (Rattus norvegicus [46]) was 6.1 and the V (Rattus norvegicus [47]) was 9.5 mL. For the same molecule, the “Excretion Na+” value (Rattus norvegicus [48]) was 1.44 m equiv, the “Excretion K+” value (Rattus norvegicus [49]) was 0.35 m equiv and the “Excretion K+” value (Rattus norvegicus [50]) was 0.33 m equiv. The Ratio (Rattus norvegicus [51]) was 4.4, the Ratio (Rattus norvegicus [52]) was 4.8 and the Ratio (Rattus norvegicus [53]) was 6.5. The “Excretion Cl-” value (Rattus norvegicus [54]) was 1.4 m equiv.
